This note sets out measurements from patent US12599672B2, “KRAS proteolysis targeting chimeras” (PAQ Therapeutics Inc., priority 2023, dated 2026).

Holding throughout (format): cell-based
One test addresses T1, KRAS (Homo sapiens, UniProt P01116).
T1 construct: endogenous in cells; host or cells: KE39 (KRAS amplified) cells
The test can be described thus: KRASamp MSD assay. To be noted: KE39 (KRAS amplified) cells, treated with test compounds for 24 hr, MSD readout of KRAS degradation. In a few lines:
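KRAS-amplified KE39 cells treated with compound for 24 hr, then lysed in RIPA buffer with protease/phosphatase inhibitors. KRAS protein measured by MSD sandwich immunoassay against a recombinant WT KRAS standard curve; DC50 derived from curve fitting of degradation.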

For another test, the target named is T2, KRAS G12V (Homo sapiens, UniProt P01116, G12V).
T2 construct: SW620-KRAS (G12V)-HiBit-KI cell (Pharmaron); host or cells: SW620-KRAS (G12V)-HiBit-KI cells (HiBiT knock-in at the endogenous KRAS locus)
The experiment in a line: KRAS G12V HiBit assay. To be noted: SW620-KRAS (G12V)-HiBit-KI cells, compound treatment for 24 hours, class symbols. In a few lines: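 HiBiT-tagged KRAS G12V cells treated 24 h with compound in a 3-fold, 10-point series (0.3 mM DMSO stock); lytic HiBiT reagent with LgBiT added after 15 min room-temperature equilibration. Degradation calculated against 0.1% DMSO high control.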
On the technique in general: With HiBiT, luminescence reflects the tagged protein that the partner subunit can reach.

The target of a further test is T3, KRAS G12D (Homo sapiens, UniProt P01116, G12D).
T3 construct: AsPc-1-KRAS (G12D)-HiBit-KI cell (Pharmaron); host or cells: AsPc-1-KRAS (G12D)-HiBit-KI cells (HiBiT knock-in at the endogenous KRAS locus)
The experiment in a line: KRAS G12D HiBit assay. To be noted: AsPc-1-KRAS (G12D)-HiBit-KI cell, compound treatment for 24 hours; for DC50: absolute DC50. In a few lines:
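Cells were treated for 24 h with compounds in a 3-fold, 10-point dilution series from a 0.3 mM DMSO stock, then equilibrated 15 min at room temperature. KRAS G12D HiBiT levels were read by luminescence after lytic Nano-Glo HiBiT reagent with LgBiT; inhibition calculated relative to 0.1% DMSO high control.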

A value given as a limit tells only on which side of the number the result lay.

T3 sequence (P01116 1-188 isoform P01116-2 G12D): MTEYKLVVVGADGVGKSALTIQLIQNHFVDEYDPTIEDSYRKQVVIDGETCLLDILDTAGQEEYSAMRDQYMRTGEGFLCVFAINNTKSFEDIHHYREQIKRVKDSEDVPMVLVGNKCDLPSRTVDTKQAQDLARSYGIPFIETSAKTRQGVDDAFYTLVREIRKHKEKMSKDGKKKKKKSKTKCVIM
T2 sequence (P01116 1-188 isoform P01116-2 G12V): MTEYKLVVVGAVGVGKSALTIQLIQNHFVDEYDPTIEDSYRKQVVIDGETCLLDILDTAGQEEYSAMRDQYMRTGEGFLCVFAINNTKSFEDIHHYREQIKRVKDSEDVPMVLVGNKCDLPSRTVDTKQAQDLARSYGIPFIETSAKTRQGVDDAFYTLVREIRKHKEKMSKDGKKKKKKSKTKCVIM
T1 sequence (P01116 1-188 isoform P01116-2): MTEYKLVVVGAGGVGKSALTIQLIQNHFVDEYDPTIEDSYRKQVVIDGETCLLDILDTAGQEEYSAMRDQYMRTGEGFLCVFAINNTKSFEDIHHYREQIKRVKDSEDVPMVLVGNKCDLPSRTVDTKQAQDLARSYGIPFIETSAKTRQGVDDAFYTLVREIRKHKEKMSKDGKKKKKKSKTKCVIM

Take `CCc1c(F)ccc2cc(O)cc(-c3ncc4c(N5CCC[C@@](C)(O)C5)nc(OCC56CCCN5[C@@H](COC(=O)N5CCC(CN7CCC(c8ccc9c(c8)n(C)c(=O)n9C8CCC(=O)NC8=O)CC7)CC5)CC6)nc4c3F)c12` (stereo partly drawn) [Compound 121, (cis-7a-(((7-(8-Ethyl-7-fluoro-3-hydroxynaphthalen-1-yl)-8-fluoro-4-((R)-3-hydroxy-3-methylpiperidin-1-yl)pyrido[4,3-d]pyrimidin-2-yl)oxy)methyl)hexahydro-1H-pyrrolizin-3-yl)methyl 4-((4-(1-(2,6-dioxopiperidin-3-yl)-3-methyl-2-oxo-2,3-dihydro-1H-benzo[d]imidazol-5-yl)piperidin-1-yl)methyl) piperidine-1-carboxylate]: the DC50 is 1 to 10 nM on KRAS, less than 10 nM at KRAS G12V and less than 100 nM at KRAS G12D (class symbols).
The matching figures for `CCc1c(F)ccc2cc(O)cc(-c3ncc4c(N5CCC[C@@](C)(O)C5)nc(OC[C@]56CCCN5[C@@H](COC(=O)N5CCC(CN7CCC(c8ccc9c(c8)n(C)c(=O)n9C8CCC(=O)NC8=O)CC7)CC5)CC6)nc4c3F)c12` (stereo partly drawn) [Compound 120, ((3R,7aR)-7a-(((7-(8-Ethyl-7-fluoro-3-hydroxynaphthalen-1-yl)-8-fluoro-4-((R)-3-hydroxyl-3-methylpiperidin-1-yl)pyrido[4,3-d]pyrimidin-2-yl)oxy)methyl)hexahydro-1H-pyrrolizin-3-yl)methyl4-((4-(1-(2,6-dioxopiperidin-3-yl)-3-methyl-2-oxo-2,3-dihydro-1H-benzo[d]imidazol-5-yl)piperidin-1-yl)methyl) piperidine-1-carboxylate]: less than 1 nM, less than 10 nM and less than 100 nM.
As for `C#Cc1c(F)ccc2cc(O)cc(-c3ncc4c(N5CCCC(F)(F)C5)nc(OC[C@@]56CCCN5[C@H](COC(=O)N5CCC(CN7CCC(c8ccc9c(c8)n(C)c(=O)n9C8CCC(=O)NC8=O)CC7)CC5)CC6)nc4c3F)c12` (stereo partly drawn) [Compound 124, ((35,7aS)-7a-(((4-(3,3-Difluoropiperidin-1-yl)-7-(8-ethynyl-7-fluoro-3-hydroxynaphthalen-1-yl)-8-fluoropyrido[4,3-d]pyrimidin-2-yl)oxy)methyl)hexahydro-1H-pyrrolizin-3-yl)methyl4-((4-(1-(2,6-dioxopiperidin-3-yl)-3-methyl-2-oxo-2,3-dihydro-1H-benzo[d]imidazol-5-yl)piperidin-1-yl)methyl) piperidine-1-carboxylate], the values for the DC50 at KRAS, at KRAS G12V and at KRAS G12D (class symbols) were less than 1 nM, less than 10 nM and less than 100 nM, respectively. At KRAS G12D (class symbols), this molecule returned a Dmax of more than 50%.
On to `CCc1c(F)ccc2cc(O)cc(-c3ncc4c(N5CCC[C@@](C)(O)C5)nc(OC[C@@]56CCCN5[C@H](COC(=O)N5CCC7(CC5)CC(N5CC(c8ccc9c(c8)n(C)c(=O)n9C8CCC(=O)NC8=O)C5)C7)CC6)nc4c3F)c12` (stereo partly drawn) [Compound 464, ((3S,7aS)-7a-(((7-(8-ethyl-7-fluoro-3-hydroxynaphthalen-1-yl)-8-fluoro-4-((R)-3-hydroxy-3-methylpiperidin-1-yl)pyrido[4,3-d]pyrimidin-2-yl)oxy)methyl)hexahydro-1H-pyrrolizin-3-yl)methyl 2-(3-(1-(2,6-dioxopiperidin-3-yl)-3-methyl-2-oxo-2,3-dihydro-1H-benzo[d]imidazol-5-yl)azetidin-1-yl)-7-azaspiro[3.5]nonane-7-carboxylate], for which the DC50 on KRAS was 1 to 10 nM; on KRAS G12V, less than 10 nM; at KRAS G12D (class symbols), less than 100 nM.
Taken in the same sequence, the figures for `CCc1c(F)ccc2cc(O)cc(-c3ncc4c(N5CCOCC(C)(O)C5)nc(OC[C@@]56CCCN5[C@H](COC(=O)N5CCC(CN7CCC(c8ccc9c(c8)n(C)c(=O)n9C8CCC(=O)NC8=O)CC7)CC5)CC6)nc4c3F)c12` (stereo partly drawn) [Compound 118, ((3S,7aS)-7a-(((7-(8-Ethyl-7-fluoro-3-hydroxynaphthalen-1-yl)-8-fluoro-4-(6-hydroxy-6-methyl-1,4-oxazepan-4-yl)pyrido[4,3-d]pyrimidin-2-yl)oxy)methyl)hexahydro-1H-pyrrolizin-3-yl)methyl4-((4-(1-(2,6-dioxopiperidin-3-yl)-3-methyl-2-oxo-2,3-dihydro-1H-benzo[d]imidazol-5-yl)piperidin-1-yl)methyl) piperidine-1-carboxylate] were less than 1 nM, less than 10 nM and less than 100 nM.
The matching figures for `CCc1c(F)ccc2cc(O)cc(-c3ncc4c(N5CCC[C@@](C)(O)C5)nc(OC[C@@]56CCCN5[C@H](COC(=O)N5CC7(CCC(CN8CCC(c9ccc%10c(c9)n(C)c(=O)n%10C9CCC(=O)NC9=O)CC8)CC7)C5)CC6)nc4c3F)c12` (stereo partly drawn) [Compound 448, ((3S,7aS)-7a-(((7-(8-ethyl-7-fluoro-3-hydroxynaphthalen-1-yl)-8-fluoro-4-((R)-3-hydroxy-3-methylpiperidin-1-yl)pyrido[4,3-d]pyrimidin-2-yl)oxy)methyl)hexahydro-1H-pyrrolizin-3-yl)methyl 7-((4-(1-(2,6-dioxopiperidin-3-yl)-3-methyl-2-oxo-2,3-dihydro-1H-benzo[d]imidazol-5-yl)piperidin-1-yl)methyl)-2-azaspiro[3.5]nonane-2-carboxylate]: less than 1 nM, less than 10 nM and less than 100 nM.
Take `CCc1c(F)ccc2cc(O)cc(-c3ncc4c(N5CCC[C@@](C)(O)C5)nc(OC[C@]56CCCN5[C@H](COC(=O)NC5CCN(c7ccc8c(c7)n(C)c(=O)n8C7CCC(=O)NC7=O)CC5)CC6)nc4c3F)c12` (stereo partly drawn) [Compound 308, ((3S,7aR)-7a-(((7-(8-ethyl-7-fluoro-3-hydroxynaphthalen-1-yl)-8-fluoro-4-((R)-3-hydroxy-3-methylpiperidin-1-yl)pyrido[4,3-d]pyrimidin-2-yl)oxy)methyl)hexahydro-1H-pyrrolizin-3-yl)methyl (1-(1-(2,6-dioxopiperidin-3-yl)-3-methyl-2-oxo-2,3-dihydro-1H-benzo[d]imidazol-5-yl)piperidin-4-yl)carbamate]: the DC50 on KRAS is less than 1 nM; at KRAS G12V, 10 to 100 nM; at KRAS G12D (numeric bounds given in place of class symbols), more than 100 nM.
Regarding `CCc1c(F)ccc2cc(O)cc(-c3ncc4c(N5CCC[C@@](C)(O)C5)nc(OC[C@@]56CCCN5[C@H](COC(=O)N5CCCC5CN5CCC(c7ccc8c(c7)n(C)c(=O)n8C7CCC(=O)NC7=O)CC5)CC6)nc4c3F)c12` (stereo partly drawn) [Compound 434, ((3S,7aS)-7a-(((7-(8-ethyl-7-fluoro-3-hydroxynaphthalen-1-yl)-8-fluoro-4-((R)-3-hydroxy-3-methylpiperidin-1-yl)pyrido[4,3-d]pyrimidin-2-yl)oxy)methyl)hexahydro-1H-pyrrolizin-3-yl)methyl 2-((4-(1-(2,6-dioxopiperidin-3-yl)-3-methyl-2-oxo-2,3-dihydro-1H-benzo[d]imidazol-5-yl)piperidin-1-yl)methyl)pyrrolidine-1-carboxylate], the DC50 on KRAS was 1 to 10 nM; on KRAS G12V, 10 to 100 nM; at KRAS G12D (class symbols), less than 100 nM.
For `CCc1c(F)ccc2cc(O)cc(-c3ncc4c(N5CCCOCC5)nc(OC[C@@]56CCCN5[C@H](COC(=O)N5CCC7(CC5)CC(N5CCC(c8ccc9c(c8)n(C)c(=O)n9C8CCC(=O)NC8=O)CC5)C7)CC6)nc4c3F)c12` (stereo partly drawn) [Compound 489, ((3S,7aS)-7a-(((7-(8-ethyl-7-fluoro-3-hydroxynaphthalen-1-yl)-8-fluoro-4-(1,4-oxazepan-4-yl)pyrido[4,3-d]pyrimidin-2-yl)oxy)methyl)hexahydro-1H-pyrrolizin-3-yl)methyl 2-(4-(1-(2,6-dioxopiperidin-3-yl)-3-methyl-2-oxo-2,3-dihydro-1H-benzo[d]imidazol-5-yl)piperidin-1-yl)-7-azaspiro[3.5]nonane-7-carboxylate], the DC50 is less than 1 nM on KRAS, less than 10 nM at KRAS G12V and less than 100 nM at KRAS G12D (class symbols).
The matching figures for `CCc1c(F)ccc2cc(O)cc(-c3ncc4c(N5CCC[C@@](C)(O)C5)nc(OC[C@@]56CCCN5[C@H](COC(=O)N5CCC(CN7CCC(c8ccc9c(c8)n(C)c(=O)n9C8CCC(=O)NC8=O)CC7)C(F)(F)C5)CC6)nc4c3F)c12` (stereo partly drawn) [Compound 397, ((3S,7aS)-7a-(((7-(8-ethyl-7-fluoro-3-hydroxynaphthalen-1-yl)-8-fluoro-4-((R)-3-hydroxy-3-methylpiperidin-1-yl)pyrido[4,3-d]pyrimidin-2-yl)oxy)methyl)hexahydro-1H-pyrrolizin-3-yl)methyl 4-((4-(1-(2,6-dioxopiperidin-3-yl)-3-methyl-2-oxo-2,3-dihydro-1H-benzo[d]imidazol-5-yl)piperidin-1-yl)methyl)-3,3-difluoropiperidine-1-carboxylate]: less than 1 nM, less than 10 nM and less than 100 nM.
